Where two headings read alike, the source gives them in different places.
Experiments:
Format in all cases: cell-based
[1] = tested on: S. aureus ATCC 29213; test: Minimal effective concentration (MEC) of EPI for EtBr; details: for MEC of EPI: S. aureus ATCC 29213, lowest amount of EPI which produces the maximum effect on the MIC of ethidium bromide
Procedure: (§1) The MEC was determined as the minimal concentration of EPI that produced the maximal reduction in substrate MIC.
(§2) The minimum effective concentration (MEC) for inhibition of EtBr efflux was determined in S. aureus, E. faecalis and S. pneumoniae for A-106 and C-9; reserpine was used as a comparator (Table 1).

[2] = tested on: E. faecalis ATCC 29212; test: as above; details: lowest amount of EPI which produces the maximum effect on the MIC of ethidium bromide
Procedure: as §1, §2

[3] = tested on: S. pneumoniae ATCC 10015; test: as above; details: lowest amount of EPI which produces the maximum effect on the MIC of ethidium bromide (reserpine: maximal subinhibitory concentration)
Procedure: as §1, §2

[4] = tested on: S. aureus ATCC 29213; test: MIC by NCCLS microdilution, antibacterial agents with and without EPI; details: for reduction of the MIC of EtBr: S. aureus wild type, EPI up to 100 μg/ml, data not shown; for MIC: Staphylococcus aureus; for Fold-reduction in MIC: gatifloxacin; for effect of EPI on the MIC of gatifloxacin: wild type strain ATCC 29213
Procedure: 3% sterile laked horse blood (Quad Five, Ryegate, Mont.) was added to assays for E. faecalis and S. Pneumoniae. A final concentration of 1% DMSO was present in all assays. […]
A-106 and C-9 were tested at their respective MECs in combination with a variety of different classes of antibiotics against S. aureus ATCC 29213 (Table 2).

[5] = tested on: S. aureus SA-1199B (NorA overproducing); test: MIC of fluoroquinolones with and without EPI; details: for reduction of MIC of ciprofloxacin / reduction of MIC of gatifloxacin / reduction of MIC of levofloxacin / reduction of MIC of norfloxacin: SA-1199B, EPIs at 4 times MEC for EtBr, A-106 at 100 μg/ml; for Fold-reduction in MIC: gatifloxacin, S. aureus SA-1199B (NorA overproducer)
From the text: (§3) A variety of strains may be used in these experiments, including, but not limited to, S. aureus ATCC 29213, E. faecalis ATCC 29212, and S. pneumoniae, S. aureus strains SA-1199, SA-1199B, SA-8325-4, and SA-K2068. S. aureus ATCC 29213, E. faecalis ATCC 29212, and S. pneumoniae ATCC 10015 were obtained from the American Type Culture Collection (Manassas, Va.). S. aureus strains SA-1199 (clinical isolate, susceptible), SA-1199B (SA-1199, NorA overproducing, also has A116E GrlA mutation), SA-8325-4 (NCTC 8325 cured of prophages), SA-K2068 (SA-8325-4, non-NorA multidrug efflux pump overproducing mutation) were obtained from Glenn Kaatz (Kaatz et al., “Identification and characterization of a novel efflux-related multidrug resistance phenotype in Staphylococcus aureus”, J. Antimicrob. Chemother. 50:833-838 (2002); 1993; Kaatz et al., “Phenothiazines and thioxanthenes inhibit multidrug efflux pump activity in Staphylococcus aureus”, Antimicrob. Agents Chemother. 47:719-726, Kaatz et al., “Efflux-mediated fluoroquinolone resistance in Staphylococcus aureus. Antimicrob. Agents Chemother.”, 37:1086-1094, 1993)).
(§4) 3% sterile laked horse blood (Quad Five, Ryegate, Mont.) was added to assays for E. faecalis and S. Pneumoniae. A final concentration of 1% DMSO was present in all assays.
(§5) Recent more hydrophobic fluoroquinolones such as gatifloxacin and moxifloxacin are less well recognized by NorA; however, recently one other pump in S. aureus has been described which also recognizes hydrophobic fluoroquinolones (Kaatz et al. 2002, supra). To investigate the potential of A-106 and C-9 to block the efflux of several fluoroquinolones in cells with constituitively over-expressed efflux pumps, we used S. aureus strains SA-1199B and K2068 (Table 3). […] Kaatz et al., “Phenothiazines and thioxanthenes inhibit multidrug efflux pump activity in Staphylococcus aureus”, Antimicrob. Agents Chemother. 47:719-726 (2003).

[6] = tested on: E. faecalis ATCC 29212; test: MIC by NCCLS microdilution, EtBr/EPI with and without EPI; details: for MIC: Enterococcus faecalis, ATCC29212; for intrinsic antibacterial activity of EPI: at 100 μg/ml, E. faecalis
Procedure: as §4
(§6) EtBr is a general substrate for many different efflux pumps in bacteria. Markham et al., “Multiple Novel Inhibitors of the NorA Multidrug Transporter of Staphylococcus aureus”, Antimicrob. Agents Chemother. 43:2404-2408 (1999). Since EtBr is a non-specific DNA intercalator, the only known mechanism of resistance to EtBr is via efflux. Markham et al., “Multiple Novel Inhibitors of the NorA Multidrug Transporter of Staphylococcus aureus”, Antimicrob. Agents Chemother. 43:2404-2408 (1999).

[7] = tested on: S. pneumoniae ATCC 10015; test: as above; details: for MIC: Streptococcus pneumoniae, ATCC10015; for intrinsic antibacterial activity of EPI: at 100 μg/ml, S. pneumoniae
Procedure: as §4, §6

[8] = tested on: S. aureus SA-K2068 (non-NorA multidrug efflux pump overproducing); test: microbe, parasite or virus in culture; details: for reduction of MIC of ciprofloxacin / reduction of MIC of gatifloxacin / reduction of MIC of levofloxacin / reduction of MIC of norfloxacin: K2068, EPIs at 4 times MEC for EtBr, A-106 at 100 μg/ml; for Fold-reduction in MIC: gatifloxacin, S. aureus K2068 (nonNorA pump overproducer)
From the text: as §3, §4, §5

[9] = S. aureus ATCC 29213, EPI at 4X the MEC for EtBr, VX-710 at 100 μg/ml
[10] = S. aureus ATCC 29213, EPIs used at the MEC, except VX-710 at 100 μg/ml
[11] = S. aureus SA-1199B (NorA overproducer) (Table 4)
[12] = S. aureus SA-1199B, EPI at 4X the MEC for EtBr, VX-710 at 100 μg/ml
[13] = Staphylococcus aureus, read-out: MIC of EtBr with EPI
[14] = E. faecalis ATCC 29212, EPIs used at the MEC, except VX-710 at 100 μg/ml
[15] = S. pneumoniae ATCC 10015, EPIs used at the MEC, except VX-710 at 100 μg/ml
[16] = S. aureus K2068 (nonNorA pump overproducer) (Table 4)
[17] = S. aureus K2068, EPI at 4X the MEC for EtBr, VX-710 at 100 μg/ml

COc1cc(C(=O)C(=O)N(C)[C@@H](Cc2ccc(Cl)cc2)C(=O)N(Cc2ccccc2)C(CCc2ccncc2)CCc2ccncc2)cc(OC)c1OC [C-9, (S)—N-Benzyl-2-(methyl-(2-oxo-2-(3,4,5-trimethoxyphenyl)acetyl)amino)-3-(4-chloro-phenyl)-N-(3-pyridin-4-yl-1-(2-pyridin-4-yl-ethyl)propyl)propionamide]
MEC of EPI [1]: 1.6 µg/mL
MEC of EPI [2]: 6.3 µg/mL
MEC of EPI [3]: 12.5 µg/mL
MIC of gatifloxacin with EPI ([4]; S. aureus ATCC 29213 (Table 4)): 0.125 µg/mL
MIC of ciprofloxacin with EPI [4, 9]: 0.125 µg/mL
MIC of gatifloxacin with EPI [4, 9]: 0.063 µg/mL
MIC of gentamicin with EPI [4, 9]: 0.125 µg/mL
MIC of levofloxacin with EPI [4, 9]: 0.125 µg/mL
MIC of norfloxacin with EPI [4, 9]: 0.5 µg/mL
Fold-reduction in EtBr MIC [4, 10]: 4
reduction of the MIC of EtBr [4]: 30 fold
MIC ([4]; ATCC29213, read-out: MIC of EPI, S. aureus ATCC 29213, EPI alone): > 100 µg/mL
MIC ([4]; ATCC29213, read-out: MIC of EtBr with EPI, S. aureus ATCC 29213, EPI at 4X the MEC for EtBr, VX-710 at 100 μg/ml): 0.8 µg/mL
MIC ([4]; ATCC29213, read-out: MIC of EtBr with EPI, S. aureus ATCC 29213, EPIs used at the MEC, except VX-710 at 100 μg/ml): 1.6 µg/mL
Fold-reduction in MIC ([4]; S. aureus ATCC 29213): 1
effect of EPI on the MIC of gatifloxacin [4]: unaffected
MIC of gatifloxacin with EPI [5, 11]: 0.25 µg/mL
MIC of ciprofloxacin with EPI [5, 12]: 2 µg/mL
MIC of gatifloxacin with EPI [5, 12]: 0.25 µg/mL
MIC of gentamicin with EPI [5, 12]: 0.125 µg/mL
MIC of levofloxacin with EPI [5, 12]: 1 µg/mL
MIC of norfloxacin with EPI [5, 12]: 8 µg/mL
reduction of MIC of ciprofloxacin [5]: 8 fold
reduction of MIC of gatifloxacin [5]: 4 fold
reduction of MIC of levofloxacin [5]: 2 fold
reduction of MIC of norfloxacin [5]: 32 fold
MIC [5, 13]: 3.1 µg/mL
Fold-reduction in MIC [5]: 2
Fold-reduction in EtBr MIC [6, 14]: 2
MIC ([6]; E. faecalis ATCC 29212, EPI alone, read-out: MIC of EPI): > 100 µg/mL
MIC ([6]; E. faecalis ATCC 29212, EPIs used at the MEC, except VX-710 at 100 μg/ml, read-out: MIC of EtBr with EPI): 3.1 µg/mL
intrinsic antibacterial activity of EPI [6]: no intrinsic antibacterial activity
Fold-reduction in EtBr MIC [7, 15]: 2
MIC ([7]; S. pneumoniae ATCC 10015, EPI alone, read-out: MIC of EPI): > 100 µg/mL
MIC ([7]; S. pneumoniae ATCC 10015, EPIs used at the MEC, except VX-710 at 100 μg/ml, read-out: MIC of EtBr with EPI): 1 µg/mL
intrinsic antibacterial activity of EPI [7]: no intrinsic antibacterial activity
reduction of MIC of ciprofloxacin [8]: 8 fold
reduction of MIC of gatifloxacin [8]: 4 fold
reduction of MIC of levofloxacin [8]: 2 fold
reduction of MIC of norfloxacin [8]: 8 fold
MIC of gatifloxacin with EPI [8, 16]: 0.5 µg/mL
MIC of ciprofloxacin with EPI [8, 17]: 1 µg/mL
MIC of gatifloxacin with EPI [8, 17]: 0.5 µg/mL
MIC of gentamicin with EPI [8, 17]: 0.063 µg/mL
MIC of levofloxacin with EPI [8, 17]: 0.5 µg/mL
MIC of norfloxacin with EPI [8, 17]: 4 µg/mL
MIC [8, 13]: 3.1 µg/mL
Fold-reduction in MIC [8]: 2

COc1cc(C(=O)C(=O)N2CCCC[C@H]2C(=O)OC(CCCc2cccnc2)CCCc2cccnc2)cc(OC)c1OC [A-106]
MEC for EtBr efflux ([1]; ATCC 29213, Table 1): ≤ 100 µg/mL
MEC of EPI [1]: ≧100 μg/ml
MEC of EPI [2]: ≧100 μg/ml
MEC of EPI [3]: ≧100 μg/ml
MIC of gatifloxacin with EPI ([4]; S. aureus ATCC 29213 (Table 4)): 0.125 µg/mL
effect on the MICs of gatifloxacin, erythromycin, azithromycin, chloramphenicol, ceftriaxone, and linezolid ([4]; S. aureus ATCC 29213, Table 2): No effect
MIC of EPI ([4]; S. aureus ATCC 29213, EPI alone): >100 µg/mL
MIC of EtBr with EPI [4, 9]: 0.2 µg/mL
MIC of ciprofloxacin with EPI [4, 9]: 0.063 µg/mL
MIC of gatifloxacin with EPI [4, 9]: 0.063 µg/mL
MIC of gentamicin with EPI [4, 9]: 0.125 µg/mL
MIC of levofloxacin with EPI [4, 9]: 0.125 µg/mL
MIC of norfloxacin with EPI [4, 9]: 0.125 µg/mL
Fold-reduction in EtBr MIC [4, 10]: 31
MIC of EtBr with EPI [4, 10]: 0.2 µg/mL
reduction of the MIC of EtBr [4]: 30 fold
Fold-reduction in MIC ([4]; S. aureus ATCC 29213): 1
effect of EPI on the MIC of gatifloxacin [4]: unaffected
MIC of gatifloxacin with EPI [5, 11]: 0.25 µg/mL
MIC of EtBr with EPI [5, 12]: 0.4 µg/mL
MIC of ciprofloxacin with EPI [5, 12]: 0.5 µg/mL
MIC of levofloxacin with EPI [5, 12]: 0.5 µg/mL
MIC of norfloxacin with EPI [5, 12]: 2 µg/mL
reduction of MIC of ciprofloxacin [5]: 2 fold
reduction of MIC of gatifloxacin [5]: 2 fold
reduction of MIC of levofloxacin [5]: 1 fold
reduction of MIC of norfloxacin [5]: 8 fold
Fold-reduction in MIC [5]: 2
MIC of EPI ([6]; E. faecalis ATCC 29212, EPI alone): >100 µg/mL
Fold-reduction in EtBr MIC [6, 14]: 8
MIC of EtBr with EPI [6, 14]: 0.8 µg/mL
intrinsic antibacterial activity of EPI [6]: no intrinsic antibacterial activity
MIC of EPI ([7]; S. pneumoniae ATCC 10015, EPI alone): >100 µg/mL
Fold-reduction in EtBr MIC [7, 15]: ≧16
MIC of EtBr with EPI [7, 15]: ≦0.125 μg/ml
intrinsic antibacterial activity of EPI [7]: no intrinsic antibacterial activity
reduction of MIC of ciprofloxacin [8]: 4 fold
reduction of MIC of gatifloxacin [8]: 2 fold
reduction of MIC of levofloxacin [8]: 2 fold
reduction of MIC of norfloxacin [8]: 2 fold
MIC of gatifloxacin with EPI [8, 16]: 0.25 µg/mL
MIC of EtBr with EPI [8, 17]: 0.4 µg/mL
MIC of ciprofloxacin with EPI [8, 17]: 0.5 µg/mL
MIC of gatifloxacin with EPI [8, 17]: 0.25 µg/mL
MIC of gentamicin with EPI [8, 17]: 0.063 µg/mL
MIC of levofloxacin with EPI [8, 17]: 0.5 µg/mL
MIC of norfloxacin with EPI [8, 17]: 1 µg/mL
Fold-reduction in MIC [8]: 4
